Laboratory results reported in ChEMBL document CHEMBL3882729, “Receptor-type kinase modulators and methods of use” (2009).
pIC50: −log10 of the molar value.

Legend:
[1] = target: Ephrin type-A receptor 2 (Homo sapiens, UniProt P29317); test: Inhibition of recombinant human N-terminal His6-tagged EphA2 (N598 to R890 residues) expressed in baculovirus using poly-EY as substrate after 180 mins by luciferase coupled chemiluminescence assay
[2] = target: Vascular endothelial growth factor receptor 2 (Homo sapiens, UniProt P35968); test: Inhibition of recombinant human N-terminal GST-fused KDR (D807 to V1356 residues) expressed in baculovirus infected […] insect Sf9 cells using poly-EY as substrate after 240 mins by luciferase coupled chemiluminescence assay
[3] = target: T1, Ephrin type-B receptor 4 (Homo sapiens, UniProt P54760); test: Inhibition of recombinant human N-terminal His6-tagged EphB4 kinase domain (E605 to E890 residues) expressed in baculovirus using poly-AEKY as substrate after 150 mins in presence of gamma33P-ATP by liquid scintillation spectrometry
T1 sequence (P54760 whole entry): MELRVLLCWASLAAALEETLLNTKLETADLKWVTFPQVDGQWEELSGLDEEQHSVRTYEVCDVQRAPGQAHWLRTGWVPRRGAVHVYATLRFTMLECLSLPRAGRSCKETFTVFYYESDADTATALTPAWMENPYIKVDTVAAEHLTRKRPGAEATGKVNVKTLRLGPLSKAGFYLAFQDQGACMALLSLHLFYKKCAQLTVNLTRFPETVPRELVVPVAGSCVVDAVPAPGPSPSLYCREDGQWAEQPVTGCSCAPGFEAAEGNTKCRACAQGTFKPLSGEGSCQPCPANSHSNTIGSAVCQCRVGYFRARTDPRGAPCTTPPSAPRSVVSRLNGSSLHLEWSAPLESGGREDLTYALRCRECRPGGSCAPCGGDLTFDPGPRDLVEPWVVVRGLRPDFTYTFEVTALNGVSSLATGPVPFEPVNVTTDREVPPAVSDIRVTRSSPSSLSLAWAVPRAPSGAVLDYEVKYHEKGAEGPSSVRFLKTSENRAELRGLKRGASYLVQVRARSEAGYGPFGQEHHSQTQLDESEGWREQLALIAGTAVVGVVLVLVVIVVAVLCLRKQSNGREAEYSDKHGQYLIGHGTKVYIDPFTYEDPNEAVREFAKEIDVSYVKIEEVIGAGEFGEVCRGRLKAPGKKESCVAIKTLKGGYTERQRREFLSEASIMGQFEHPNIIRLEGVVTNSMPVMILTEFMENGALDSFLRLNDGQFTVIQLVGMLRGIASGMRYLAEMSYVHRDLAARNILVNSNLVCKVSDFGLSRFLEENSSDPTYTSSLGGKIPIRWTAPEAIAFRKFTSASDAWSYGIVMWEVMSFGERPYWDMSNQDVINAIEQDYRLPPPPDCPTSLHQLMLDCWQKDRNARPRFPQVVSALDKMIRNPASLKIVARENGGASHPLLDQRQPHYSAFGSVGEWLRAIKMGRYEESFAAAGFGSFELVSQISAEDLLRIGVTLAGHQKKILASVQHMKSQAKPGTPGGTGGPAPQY

Vascular endothelial growth factor receptor 2, sequence (P35968 whole entry, the tested form may be a part): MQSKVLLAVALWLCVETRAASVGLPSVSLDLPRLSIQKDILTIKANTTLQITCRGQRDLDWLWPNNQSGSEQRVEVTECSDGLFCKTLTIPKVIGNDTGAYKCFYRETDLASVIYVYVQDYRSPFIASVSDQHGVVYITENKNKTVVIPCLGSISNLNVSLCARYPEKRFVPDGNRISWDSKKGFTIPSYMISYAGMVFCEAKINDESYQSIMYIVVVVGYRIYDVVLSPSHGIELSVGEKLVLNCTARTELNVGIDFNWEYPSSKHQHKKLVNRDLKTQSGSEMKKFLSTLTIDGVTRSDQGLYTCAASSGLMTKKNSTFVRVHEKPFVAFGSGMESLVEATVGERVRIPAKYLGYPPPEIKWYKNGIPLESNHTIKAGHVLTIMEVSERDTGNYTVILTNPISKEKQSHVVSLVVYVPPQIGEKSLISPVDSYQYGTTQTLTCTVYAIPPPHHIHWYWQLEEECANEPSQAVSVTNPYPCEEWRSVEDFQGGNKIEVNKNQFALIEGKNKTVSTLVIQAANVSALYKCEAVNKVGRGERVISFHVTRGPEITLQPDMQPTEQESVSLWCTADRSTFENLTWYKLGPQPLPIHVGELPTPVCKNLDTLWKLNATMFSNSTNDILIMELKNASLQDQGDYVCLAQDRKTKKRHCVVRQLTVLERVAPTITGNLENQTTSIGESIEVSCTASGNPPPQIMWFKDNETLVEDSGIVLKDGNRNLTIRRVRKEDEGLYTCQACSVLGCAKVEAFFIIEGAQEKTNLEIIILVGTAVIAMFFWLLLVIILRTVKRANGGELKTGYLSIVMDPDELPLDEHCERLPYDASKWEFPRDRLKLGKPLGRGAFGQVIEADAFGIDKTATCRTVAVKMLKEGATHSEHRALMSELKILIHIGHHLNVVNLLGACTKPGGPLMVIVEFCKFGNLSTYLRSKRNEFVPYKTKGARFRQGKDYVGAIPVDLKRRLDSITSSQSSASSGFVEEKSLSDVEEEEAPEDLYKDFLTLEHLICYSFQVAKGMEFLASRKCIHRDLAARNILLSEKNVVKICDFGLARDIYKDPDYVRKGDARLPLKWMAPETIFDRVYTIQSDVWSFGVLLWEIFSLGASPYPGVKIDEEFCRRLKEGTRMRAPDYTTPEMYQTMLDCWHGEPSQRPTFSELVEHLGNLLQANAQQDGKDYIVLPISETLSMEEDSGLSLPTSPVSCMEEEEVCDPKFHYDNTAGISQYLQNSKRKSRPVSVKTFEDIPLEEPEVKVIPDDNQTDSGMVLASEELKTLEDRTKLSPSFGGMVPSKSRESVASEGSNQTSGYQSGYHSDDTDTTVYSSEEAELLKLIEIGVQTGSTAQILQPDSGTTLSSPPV
Ephrin type-A receptor 2, sequence (P29317 whole entry, the tested form may be a part): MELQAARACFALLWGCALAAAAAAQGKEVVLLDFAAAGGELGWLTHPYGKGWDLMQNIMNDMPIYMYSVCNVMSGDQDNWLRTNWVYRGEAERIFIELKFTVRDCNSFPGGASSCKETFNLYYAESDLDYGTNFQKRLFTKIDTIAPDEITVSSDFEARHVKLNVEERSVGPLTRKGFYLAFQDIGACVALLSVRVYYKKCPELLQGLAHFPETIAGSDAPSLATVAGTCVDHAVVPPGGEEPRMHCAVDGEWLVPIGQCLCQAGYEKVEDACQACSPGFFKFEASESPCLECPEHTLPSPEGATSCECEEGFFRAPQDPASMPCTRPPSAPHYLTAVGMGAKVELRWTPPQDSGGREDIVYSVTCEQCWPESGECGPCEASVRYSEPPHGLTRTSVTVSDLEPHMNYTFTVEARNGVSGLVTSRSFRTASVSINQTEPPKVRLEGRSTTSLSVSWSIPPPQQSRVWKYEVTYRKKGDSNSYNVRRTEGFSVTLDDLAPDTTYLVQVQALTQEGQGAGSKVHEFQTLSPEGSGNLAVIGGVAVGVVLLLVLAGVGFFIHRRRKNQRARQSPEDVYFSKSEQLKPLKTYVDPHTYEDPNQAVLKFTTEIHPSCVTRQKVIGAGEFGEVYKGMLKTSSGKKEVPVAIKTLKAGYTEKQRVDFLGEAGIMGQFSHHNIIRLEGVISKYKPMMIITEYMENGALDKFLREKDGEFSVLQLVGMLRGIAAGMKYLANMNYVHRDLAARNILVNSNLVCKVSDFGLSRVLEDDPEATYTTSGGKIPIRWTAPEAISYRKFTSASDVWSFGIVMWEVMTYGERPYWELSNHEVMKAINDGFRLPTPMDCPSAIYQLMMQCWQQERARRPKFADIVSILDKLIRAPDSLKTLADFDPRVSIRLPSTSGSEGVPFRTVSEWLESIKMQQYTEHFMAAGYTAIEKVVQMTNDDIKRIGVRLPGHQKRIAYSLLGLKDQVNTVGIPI

SMILES	pIC50 [1]	pIC50 [2]	pIC50 [3]
COc1cc2c(Nc3ccc(Cl)c(Cl)c3)ncnc2cc1OCC1CN(CCc2ccccc2)CCO1 (stereo unspecified)	4.70 to 6.00	6.00 to 7.30	6.00 to 7.30
COc1cc2c(Nc3ccc(Cl)c(Cl)c3)ncnc2cc1OCC1CN(S(=O)(=O)c2ccccc2)CCO1 (stereo unspecified)	4.70 to 6.00	6.00 to 7.30	6.00 to 7.30
COc1cc2c(Nc3ccc(Cl)c(Cl)c3)ncnc2cc1OCC1CN(CCC(C)C)CCCO1 (stereo unspecified)	6.00 to 7.30	6.00 to 7.30	6.00 to 7.30
COc1cc2c(Nc3cc(Cl)ccc3F)ncnc2cc1OCC1CN(C)CCO1 (stereo unspecified)	6.00 to 7.30	6.00 to 7.30	6.00 to 7.30
COc1cc2c(Nc3ccc(Cl)c(Cl)c3)ncnc2cc1OCC1CN(C2CCN(C)CC2)CCO1 (stereo unspecified)	6.00 to 7.30	> 7.30	> 7.30
COc1cc2c(Nc3ccc(Cl)c(Cl)c3)ncnc2cc1OCC1CN(CCC2CCCCC2)CCO1 (stereo unspecified)	6.00 to 7.30	6.00 to 7.30	6.00 to 7.30
COc1cc2c(Nc3ccc(Cl)cc3F)ncnc2cc1OCC1CN(C)CCO1 (stereo unspecified)	6.00 to 7.30	> 7.30	6.00 to 7.30
COc1cc2c(Nc3cccc(Cl)c3F)ncnc2cc1OCC1CN(C)CCO1 (stereo unspecified)	6.00 to 7.30	6.00 to 7.30	6.00 to 7.30
COc1cc2c(Nc3ccc(Cl)c(Cl)c3)ncnc2cc1OCC1CN(CCF)CCO1 (stereo unspecified)	6.00 to 7.30	6.00 to 7.30	6.00 to 7.30
COc1cc2c(Nc3ccc(Cl)c(Cl)c3)ncnc2cc1OCC1CN(S(=O)(=O)c2ccc(F)cc2)CCO1 (stereo unspecified)	4.70 to 6.00	6.00 to 7.30	6.00 to 7.30
COc1cc2c(Nc3ccc(Cl)c(Cl)c3)ncnc2cc1OCC1CN(CCCOC2CCCCO2)CCCO1 (stereo unspecified)	6.00 to 7.30	> 7.30	> 7.30
COc1cc2c(Nc3ccc(Cl)c(Cl)c3)ncnc2cc1OCC1OCCN(CC(=O)c2ccccc2)C1=O (stereo unspecified)	6.00 to 7.30	6.00 to 7.30	6.00 to 7.30
CCC(=O)CN1CCOC(COc2cc3ncnc(Nc4ccc(Cl)c(Cl)c4)c3cc2OC)C1 (stereo unspecified)	6.00 to 7.30	6.00 to 7.30	6.00 to 7.30
COc1cc2c(Nc3ccc(Br)cc3F)ncnc2cc1OCC1CN(C)CCO1 (stereo unspecified)	6.00 to 7.30	> 7.30	6.00 to 7.30
CCN1CCN(C)CC1COc1cc2ncnc(Nc3ccc(Cl)c(Cl)c3)c2cc1OC (stereo unspecified)	6.00 to 7.30	4.70 to 6.00	6.00 to 7.30
COc1cc2c(Nc3ccc(Cl)c(Cl)c3)ncnc2cc1OCC1CN(S(=O)(=O)c2ccc(C)cc2)CCO1 (stereo unspecified)	4.70 to 6.00	6.00 to 7.30	4.70 to 6.00
CCCCCCCN1CCOC(COc2cc3ncnc(Nc4ccc(Cl)c(Cl)c4)c3cc2OC)C1 (stereo unspecified)	4.70 to 6.00	6.00 to 7.30	6.00 to 7.30
CCCCCCCCN1CCOC(COc2cc3ncnc(Nc4ccc(Cl)c(Cl)c4)c3cc2OC)C1 (stereo unspecified)	4.70 to 6.00	4.70 to 6.00	6.00 to 7.30
COc1cc2c(Nc3ccc(Cl)c(Cl)c3)ncnc2cc1OCC1CN(CCC2OCCO2)CCO1 (stereo unspecified)	6.00 to 7.30	6.00 to 7.30	> 7.30
COc1cc2c(Nc3ccc(Cl)c(Cl)c3)ncnc2cc1OCC1CN(CCCCF)CCO1 (stereo unspecified)	6.00 to 7.30	> 7.30	> 7.30
CC[C@@H](C)CN1CCOC(COc2cc3ncnc(Nc4ccc(Cl)c(Cl)c4)c3cc2OC)C1 (stereo partly specified)	6.00 to 7.30	6.00 to 7.30	6.00 to 7.30
CCCC(C)C(=O)N1CCOC(COc2cc3ncnc(Nc4ccc(Cl)c(Cl)c4)c3cc2OC)C1 (stereo unspecified)	6.00 to 7.30	6.00 to 7.30	6.00 to 7.30

Results, then the compound that gave them:

pIC50 [1]	pIC50 [2]	pIC50 [3]	SMILES
6.00 to 7.30	6.00 to 7.30	6.00 to 7.30	COc1cc2c(Nc3ccc(Cl)c(Cl)c3)ncnc2cc1OCC1CN(CCO)CCO1 (stereo unspecified)
6.00 to 7.30	6.00 to 7.30	6.00 to 7.30	CCCCS(=O)(=O)N1CCOC(COc2cc3ncnc(Nc4ccc(Cl)c(Cl)c4)c3cc2OC)C1 (stereo unspecified)
6.00 to 7.30	6.00 to 7.30	6.00 to 7.30	COc1cc2c(Nc3ccc(Cl)c(Cl)c3)ncnc2cc1OCC1CN(C(C)C(C)=O)CCO1 (stereo unspecified)
6.00 to 7.30	6.00 to 7.30	6.00 to 7.30	COc1cc2c(Nc3ccc(Cl)c(Cl)c3)ncnc2cc1OCC1CN(CC2CCCCC2)CCO1 (stereo unspecified)
> 7.30	6.00 to 7.30	> 7.30	COc1cc2c(Nc3cccc(Cl)c3C)ncnc2cc1OCC1CN(C)CCO1 (stereo unspecified)
6.00 to 7.30	6.00 to 7.30	6.00 to 7.30	COc1cc2c(Nc3ccc(Cl)c(Cl)c3)ncnc2cc1OCC1CN(C/C=C/Br)CCO1 (stereo unspecified)
6.00 to 7.30	6.00 to 7.30	6.00 to 7.30	COc1cc2c(Nc3ccc(Cl)c(Cl)c3)ncnc2cc1OCc1csc(CN2CCCC2)n1
6.00 to 7.30	6.00 to 7.30	6.00 to 7.30	COc1cc2c(Nc3ccc(Cl)c(Cl)c3)ncnc2cc1OCC1CN(S(=O)(=O)Cc2ccccc2)CCO1 (stereo unspecified)
6.00 to 7.30	6.00 to 7.30	6.00 to 7.30	COc1cc2c(Nc3ccc(Cl)cc3Cl)ncnc2cc1OCC1CN(C)CCO1 (stereo unspecified)
6.00 to 7.30	> 7.30	6.00 to 7.30	COc1cc2c(Nc3ccc(Cl)c(Cl)c3)ncnc2cc1OCC1CN(CC2CCCCC2)CCCO1 (stereo unspecified)
6.00 to 7.30	6.00 to 7.30	6.00 to 7.30	COc1cc2c(Nc3ccc(Br)cc3Br)ncnc2cc1OCC1CN(C)CCO1 (stereo unspecified)
6.00 to 7.30	6.00 to 7.30	6.00 to 7.30	COc1cc2c(Nc3ccc(Cl)c(Cl)c3)ncnc2cc1OCC1CN(CCC2CCCCC2)CCCO1 (stereo unspecified)
6.00 to 7.30	6.00 to 7.30	6.00 to 7.30	CCC(CC)CN1CCOC(COc2cc3ncnc(Nc4ccc(Cl)c(Cl)c4)c3cc2OC)C1 (stereo unspecified)
6.00 to 7.30	6.00 to 7.30	> 7.30	COc1cc2c(Nc3ccc(Cl)c(Cl)c3)ncnc2cc1OCC1CN(C2CCOCC2)CCO1 (stereo unspecified)
6.00 to 7.30	6.00 to 7.30	6.00 to 7.30	CCC(CC)CN1CCCOC(COc2cc3ncnc(Nc4ccc(Cl)c(Cl)c4)c3cc2OC)C1 (stereo unspecified)
6.00 to 7.30	6.00 to 7.30	6.00 to 7.30	CCCCCN1CCOC(COc2cc3ncnc(Nc4ccc(Cl)c(Cl)c4)c3cc2OC)C1 (stereo unspecified)
6.00 to 7.30	> 7.30	6.00 to 7.30	COc1cc2c(Nc3ccc(Cl)c(Cl)c3)ncnc2cc1OCC1CN(C2CCC2)CCO1 (stereo unspecified)
6.00 to 7.30	6.00 to 7.30	6.00 to 7.30	COc1cc2c(Nc3ccc(Cl)c(Cl)c3)ncnc2cc1OCC1CN(CC=C(C)C)CCO1 (stereo unspecified)
6.00 to 7.30	6.00 to 7.30	6.00 to 7.30	CCCCCCN1CCOC(COc2cc3ncnc(Nc4ccc(Cl)c(Cl)c4)c3cc2OC)C1 (stereo unspecified)
6.00 to 7.30	6.00 to 7.30	6.00 to 7.30	CC#CCN1CCOC(COc2cc3ncnc(Nc4ccc(Cl)c(Cl)c4)c3cc2OC)C1 (stereo unspecified)
6.00 to 7.30	4.70 to 6.00	6.00 to 7.30	CCN1CCN(CC)C(COc2cc3ncnc(Nc4ccc(Cl)c(Cl)c4)c3cc2OC)C1 (stereo unspecified)
6.00 to 7.30	> 7.30	6.00 to 7.30	COc1cc2c(Nc3ccc(Br)cc3F)ncnc2cc1OCC1CCN(C(N)=NC#N)CC1
6.00 to 7.30	> 7.30	> 7.30	C=CCCCN1CCOC(COc2cc3ncnc(Nc4ccc(Cl)c(Cl)c4)c3cc2OC)C1 (stereo unspecified)
6.00 to 7.30	6.00 to 7.30	6.00 to 7.30	COc1cccc(CC(=O)N2CCOC(COc3cc4ncnc(Nc5ccc(Cl)c(Cl)c5)c4cc3OC)C2)c1 (stereo unspecified)
6.00 to 7.30	6.00 to 7.30	6.00 to 7.30	C=CCN1CCOC(COc2cc3ncnc(Nc4ccc(Cl)c(Cl)c4)c3cc2OC)C1 (stereo unspecified)
